For data set [1], the system named is healthy human subjects. Put plainly: Pooled analysis: autonomic response to MDMA (blood pressure, heart rate, body temperature; Emax).
The conditions of data set [2]: poor vs extensive/normal metabolizers; de la Torre et al., 2005; Schmid et al., 2016; cited from earlier work.
Data set [3] can be described thus: Pooled analysis of ten placebo-controlled crossover studies: MDMA plasma concentration (AUC 0-6 h).
Data set [4] deals with healthy human subjects. The data set can be described thus: Pooled analysis: subjective response to MDMA (VAS, AMRS, 5D-ASC).

On to `CNC(C)Cc1ccc2c(c1)OCO2` (racemic) [MDMA, (±)3,4-methylenedioxymethamphetamine], for which, in data set [1] (LASSO model (FIG. 3)), the “Heart rate increase, relation to older age” value is listed as “lower heart rate increase” and the “Temperature increase, relation to older age” value is “lower temperature increase”. Also, in data set [1] (adjusted for dose per body weight (FIG. 2), p<0.05), the “Heart rate, correlation with age” value is “inverse correlation between heart rate and age remained significant”. Also, the “MDMA blood plasma concentrations in CYP2D6 poor metabolizers” value in data set [2] is given as “higher MDMA blood plasma concentrations than extensive/normal metabolizers”. Besides, the “MDMA plasma concentration, relation to genetically determined CYP2D6 activity” value in data set [3] (adjusted for dose per body weight (FIG. 2), p<0.01) is “still inversely correlated with the MDMA plasma concentration”. In data set [3] (poor vs extensive CYP2D6 metabolizers (FIGS. 1 and 2)), the “MDMA concentrations and response in subjects with poor CYP2D6 activity” value was “higher MDMA concentrations and a stronger MDMA response compared with CYP2D6 extensive metabolizers”. Also, the “MDMA plasma AUC over 6 hours, women vs men” value in data set [3] (similar total doses, not accounting for body weight) is “women exhibit significantly higher MDMA plasma AUC than men”. Also, in data set [4] (LASSO model (FIG. 3)), the “Bad drug effect, relation to older age” value was “higher bad drug effect” and the “Strongest predictor of outcome effects after MDMA (plasma AUC, MAP increase, AMRS, VAS, 5D-ASC ratings)” value is “dose per body weight is the strongest predictor”. In addition, the “Sex as predictor of response” value in data set [4] (adjusted for dose and body weight (FIG. 2)) is reported as “lost its predictor value”. Further, the “Effect of well-being (AMRS) before MDMA on response” value in data set [4] (dose-adjusted (FIG. 2)) is given as “no significant effect as predictor variable on the response to MDMA”. Besides, the “Dread of ego dissolution and impaired control and cognition (5D-ASC) in subjects with higher neuroticism (NEO-FFI) and trait anxiety (STAI-T)” value in data set [4] (dose-adjusted (FIG. 2), both p<0.01 and both p<0.05) was “more likely to experience “dread of ego dissolution” and “impaired control and cognition””. For the same compound, the “Closeness (VAS), oceanic boundlessness and visionary restructuralization (5D-ASC), relation to openness to experience (NEO-FFI)” value in data set [4] (dose-adjusted (FIG. 2), p<0.05, p<0.05, p<0.01) is listed as “positively correlated”. Also, in data set [4] (past use within the range of 0-5 times (FIG. 2 and FIG. 3)), the “Effect of past use of MDMA on response” value is on record as “no significant effect on the response to MDMA”. Moreover, in data set [4] (within range of doses tested (75 and 125 mg)), the “Good drug effect / positive effects, relation to dose” value is reported as “a high dose of MDMA (>75 mg) is needed to produce greater positive effects”. Moreover, the “Intensity of response at high dose of MDMA per body weight” value in data set [4] (within the 75-125 mg absolute dose range (FIG. 1)) was “more intense response to MDMA with more positive and more cardiostimulant effects”.

Values taken from patent publication US20210386704A1, “MDMA RESPONSE PREDICTION” (Universitätsspital Basel, priority 2020, published 2021).
